Measured values reported in ChEMBL document CHEMBL4422651, “Revisiting tubercidin against kinetoplastid parasites: Aromatic substitutions at position 7 improve activity and reduce toxicity” (Eur J Med Chem, 2019).
The source made the active and inactive calls. The calls are words filed in the database; no cut-off is given here.

Assays:
[1] = tested on: Trypanosoma brucei brucei; assay: Antitrypanosomal activity against Trypanosoma brucei brucei Squib 427 after 48 hrs by alamar blue assay; assay type: functional, organism-based; conditions: Squib 427, 48 h
[2] = tested on: MRC5; assay: Cytotoxicity against human MRC5 cells assessed as reduction in cell viability after 3 days by resazurin dye-based assay; conditions: MRC5, 72 h
[3] = tested on: Trypanosoma cruzi; assay: Antitrypanosomal activity against nifurtimox-sensitive Trypanosoma cruzi Tulahuen CL2 harboring beta-galactosidase infected in human MRC5 cells after 7 days by resazurin dye-based assay; assay type: functional, organism-based
[4] = Selectivity index, ratio of EC50 for human MRC5 cells to EC50 for Trypanosoma brucei brucei Squib 427; assay type: toxicity; conditions: read-out: Ratio EC50
[5] = Selectivity index, ratio of EC50 for human MRC5 cells to EC50 for Trypanosoma brucei rhodesiense STIB-900; assay type: toxicity; conditions: read-out: Ratio EC50
[6] = tested on: Trypanosoma brucei rhodesiense; assay: Antitrypanosomal activity against Trypanosoma brucei rhodesiense STIB-900 after 48 hrs by alamar blue assay; assay type: functional, organism-based; conditions: STIB-900, 48 h
[7] = tested on: Trypanosoma brucei; assay: Antitrypanosomal activity against wild type Trypanosoma brucei Lister 427 after 48 hrs by alamar blue assay; assay type: functional, organism-based; conditions: Lister 427, 48 h
[8] = tested on: Trypanosoma brucei; assay: Antitrypanosomal activity against Trypanosoma brucei TbAT1-KO after 48 hrs by alamar blue assay; assay type: functional, organism-based
[9] = tested on: Trypanosoma brucei; assay: Antitrypanosomal activity against pentamidine/diminazene/melaminophenyl arsenical resistant Trypanosoma brucei B48 after 48 hrs by alamar blue assay; assay type: functional, organism-based; conditions: B48, 48 h
[10] = tested on: Trypanosoma brucei; assay: Antitrypanosomal activity against isometamidium resistant Trypanosoma brucei ISMR1 after 48 hrs by alamar blue assay; assay type: functional, organism-based; conditions: ISMR1, 48 h
[11] = tested on: Trypanosoma congolense; assay: Antitrypanosomal activity against Trypanosoma congolense by resazurin assay; assay type: functional, organism-based
[12] = tested on: Leishmania infantum; assay: Antileishmanial activity against Leishmania infantum amastigotes infected in Swiss mouse primary peritoneal macrophages assessed as reduction in parasite burden after 5 days by Giemsa staining-based microscopic analysis; assay type: functional, organism-based; conditions: 120 h
[13] = Inhibition of [3H]-adenosine transport at Trypanosoma brucei Adenosine transporter P1 expressed in pentamidine/diminazene/melaminophenyl arsenical resistant Trypanosoma brucei B48 bloodstream forms after 60 secs by scintillation counting analysis
[14] = tested on: Peritoneal macrophage; assay: Cytotoxicity against Swiss mouse primary peritoneal macrophages assessed as reduction in cell viability after 5 days; assay type: cell-based; conditions: mouse, peritoneal macrophage, 120 h
[15] = Inhibition of [3H]-adenosine transport at Trypanosoma brucei Adenosine transporter P2 expressed in pentamidine/diminazene/melaminophenyl arsenical resistant Trypanosoma brucei B48 bloodstream forms after 60 secs by scintillation counting analysis
[16] = Selectivity index, ratio of EC50 for human MRC5 cells to EC50 for nifurtimox-sensitive Trypanosoma cruzi Tulahuen CL2 harboring beta-galactosidase; assay type: toxicity; conditions: read-out: Ratio EC50

Compound: Cn1cncc1-c1cn([C@@H]2O[C@H](CO)[C@@H](O)[C@H]2O)c2ncnc(N)c12
- EC50 [1]: 33.3 µM
- EC50 [2]: > 64 µM
- Activity [3]: inactive
- selectivity ratio [4]: > 1.9

Compound: Cc1ccc(-c2cn([C@@H]3O[C@H](CO)[C@@H](O)[C@H]3O)c3ncnc(N)c23)cc1
- EC50 [1]: 29.1 µM
- EC50 [2]: 26.2 µM
- Activity [3]: inactive
- selectivity ratio [4]: 0.9

Compound: Nc1ncnc2c1c(-c1nccc3ccccc13)cn2[C@@H]1O[C@H](CO)[C@@H](O)[C@H]1O
- EC50 [1]: > 64 µM
- selectivity ratio [5]: > 1.2
- EC50 [6]: 55.6 µM
- EC50 [2]: > 64 µM
- Activity [3]: inactive

Compound: Nc1ncnc2c1c(-c1cccc(Cl)n1)cn2[C@@H]1O[C@H](CO)[C@@H](O)[C@H]1O
- EC50 [1]: 1.75 µM
- selectivity ratio [5]: > 103
- EC50 [6]: 0.62 µM
- EC50 [2]: > 64 µM
- Activity [3]: inactive
- selectivity ratio [4]: > 37

Compound: N=C(N)c1ccc(/N=N/Nc2ccc(C(=N)N)cc2)cc1 [DIMINAZENE]
- EC50 [7]: 0.42 µM
- EC50 [8]: 4.5 µM
- EC50 [9]: 7.2 µM
- EC50 [10]: 2.9 µM
- EC50 [11]: 0.22 µM

Compound: COc1ccc(-c2cn([C@@H]3O[C@H](CO)[C@@H](O)[C@H]3O)c3ncnc(N)c23)cc1
- EC50 [1]: 41.6 µM
- EC50 [2]: 28 µM
- Activity [3]: inactive
- selectivity ratio [4]: 0.67

Compound: Nc1ncnc2c1ccn2[C@@H]1O[C@H](CO)[C@@H](O)[C@H]1O [TUBERCIDIN]
- EC50 [7]: 0.15 µM
- EC50 [12]: 0.13 µM
- EC50 [8]: 2.61 µM
- EC50 [1]: 0.48 µM
- Ki [13]: 78 µM
- Activity [14]: Toxic
- Ki [15]: 3.8 µM
- EC50 [2]: 2.23 µM
- EC50 ([3]; Tulahuen CL2, MRC5, 168 h): 0.34 µM
- EC50 [9]: 4.3 µM
- selectivity ratio [16]: 6.5
- EC50 [10]: 1.7 µM
- selectivity ratio [4]: 4.6

Compound: Nc1ncnc2c1c(-c1ccncc1)cn2[C@@H]1O[C@H](CO)[C@@H](O)[C@H]1O
- EC50 [1]: > 64 µM
- Ki [13]: 12.5 µM
- Ki [15]: 9.34 µM
- EC50 [2]: 55.8 µM
- Activity [3]: inactive

Compound: Nc1ncnc2c1c(-c1ccc3ccccc3n1)cn2[C@@H]1O[C@H](CO)[C@@H](O)[C@H]1O
- EC50 [1]: 6.45 µM
- selectivity ratio [5]: > 17
- EC50 [6]: 3.72 µM
- EC50 [2]: > 64 µM
- Activity [3]: inactive
- selectivity ratio [4]: > 9.9

Compound: Nc1ncnc2c1c(-c1cccc(Cl)c1)cn2[C@@H]1O[C@H](CO)[C@@H](O)[C@H]1O
- EC50 [1]: 9.9 µM
- selectivity ratio [5]: 4.8
- EC50 [6]: 6.88 µM
- EC50 [2]: 32.8 µM
- Activity [3]: inactive
- selectivity ratio [4]: 3.3

Compound: Cn1cnc(-c2cn([C@@H]3O[C@H](CO)[C@@H](O)[C@H]3O)c3ncnc(N)c23)c1
- EC50 [1]: 4.76 µM
- EC50 [2]: 23.4 µM
- Activity [3]: inactive
- selectivity ratio [4]: 4.9

Compound: Nc1ncnc2c1c(-c1ccccc1)cn2[C@@H]1O[C@H](CO)[C@@H](O)[C@H]1O
- EC50 [1]: 32.3 µM
- selectivity ratio [5]: 14
- EC50 [6]: 4.1 µM
- EC50 [2]: 56.2 µM
- Activity [3]: inactive
- selectivity ratio [4]: 1.7

Compound: Nc1ncnc2c1c(-c1cncnc1)cn2[C@@H]1O[C@H](CO)[C@@H](O)[C@H]1O
- EC50 [1]: 52.4 µM
- EC50 [2]: > 64 µM
- Activity [3]: inactive
- selectivity ratio [4]: > 1.2

Compound: Nc1ncnc2c1c(-c1ccc(F)cn1)cn2[C@@H]1O[C@H](CO)[C@@H](O)[C@H]1O
- EC50 [1]: 4.77 µM
- selectivity ratio [5]: > 38
- EC50 [6]: 1.69 µM
- EC50 [2]: > 64 µM
- Activity [3]: inactive
- selectivity ratio [4]: > 13

Compound: O=C(Cn1ccnc1[N+](=O)[O-])NCc1ccccc1 [BENZNIDAZOLE]
- EC50 [2]: > 64 µM
- selectivity ratio [16]: > 23

Compound: Nc1ncnc2c1c(-c1ccccc1F)cn2[C@@H]1O[C@H](CO)[C@@H](O)[C@H]1O
- EC50 [1]: 33.3 µM
- selectivity ratio [5]: 2.3
- EC50 [6]: 26.3 µM
- EC50 [2]: 61 µM
- Activity [3]: inactive
- selectivity ratio [4]: 1.8
